This note sets out measurements from patent publication US9718760B2, “Plasminogen activator inhibitor-1 inhibitors and methods of use thereof” (THE REGENTS OF THE UNIVERSITY OF MICHIGAN, priority 2012, dated 2017).

SMILES strings stand for the structures. Several values for one entry are separate records, joined by “and”; a condition that tells them apart may be missing. Equal values may be shown once. Read-outs that look alike come from different tables or passages of the source.

The target in this assay is recombinant active human PAI-1 (Homo sapiens (Human), UniProt P05121). Briefly: Fluorometric PAI-1/uPA IC50 plate assay at pH 7.4. Type of assay: biochemical. The protocol:
To determine the efficacy of various synthesized compounds as PAI-1 inhibitors, a fluorometric plate assay was carried out to measure the half maximal inhibitory concentration (IC50) of these compounds on recombinant active human PAI-1 in vitro. An IC50 is a measure of the effectiveness of a compound in inhibiting biological or biochemical function. Stated another way, IC50 represents the concentration of a drug that is required for 50% inhibition in vitro.
PAI-1 inhibitor compounds were dissolved in DMSO to a final concentration of (10-50 mM), depending upon solubility. Compounds were then diluted in physiologic buffer (40 mM HEPES, 100 mM NaCl, 0.05% Tween-20, pH7.4) containing 10% DMSO and a dilution series (from 0 to 1000 uM depending on solubility) was prepared. 80 μL of compound was added per well to a 96-well black, opaque microplate in duplicate. 10 μL of 20 nM Recombinant active human PAI-1 (Molecular Innovations) in physiologic buffer (40 mM HEPES, 100 mM NaCl, 0.05% Tween-20, 10% DMSO, pH 7.4), or […] physiologic buffer with 10% human plasma, was added and the mixture was agitated for 15 minutes at room temperature. 10 μL of 25 nM uPA (Rheotromb®) was added to each reaction well and the plate was agitated for an additional 30 minutes at room temperature. Tripeptide aminomethylcoumarin Gly-Gly-Arg-AMC (Calbiochem) fluorogenic substrate (100 μL of 100 μM) was then added and residual uPA activity was determined based upon cleavage of this substrate. The rate of AMC release by uPA (fluorescence) was measured at an excitation wavelength of 370 nm and an emission wavelength of 440 nm. Controls included PAI-1 and uPA in the absence of compound and uPA alone. Percent PAI-1 inhibition was calculated using the following formula: [(uPA alone-uPA/PAI-1+ compound)/(uPA alone-PAI-1/uPA)]*100%. The IC50 was calculated using Graphit (IC50 0-100%).

Setting [1] is: physiologic buffer (40 mM HEPES, 100 mM NaCl, 0.05% Tween-20, 10% DMSO), read-out: PAI-1/uPA IC50 in buffer.
Setting [2] is: physiologic buffer with 1.5% BSA (15 mg/mL), read-out: PAI-1/uPA IC50 in 1.5% BSA buffer.
[3] abbreviates: physiologic buffer with 10% human plasma, read-out: PAI-1/uPA IC50 in 10% plasma buffer.

Sequence of recombinant active human PAI-1 (P05121 24-402): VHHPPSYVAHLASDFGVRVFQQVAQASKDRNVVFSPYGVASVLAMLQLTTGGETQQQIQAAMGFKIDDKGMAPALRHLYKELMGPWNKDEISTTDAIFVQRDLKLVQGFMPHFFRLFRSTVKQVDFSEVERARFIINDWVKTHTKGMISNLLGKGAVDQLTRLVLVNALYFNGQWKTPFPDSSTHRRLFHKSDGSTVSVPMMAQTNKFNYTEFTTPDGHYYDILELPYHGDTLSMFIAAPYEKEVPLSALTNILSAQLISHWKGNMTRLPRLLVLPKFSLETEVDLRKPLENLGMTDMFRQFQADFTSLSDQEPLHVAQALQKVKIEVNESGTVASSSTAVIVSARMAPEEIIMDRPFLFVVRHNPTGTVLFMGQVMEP

As to `CCOC(=O)C(=O)NCc1ccc(Cl)c(C(F)(F)F)c1` [C256, ethyl 2-((4-chloro-3-(trifluoromethyl)benzyl)amino)-2-oxoacetate], the IC50 runs as follows: under setting [1], 1040 µM and 1350 µM; under setting [2], 204 µM and 235 µM; under setting [3], 214 µM.

On to `NNC(=O)C(=O)NCc1cccc(Cl)c1` [C266], for which the IC50 is 568 µM and 549 µM under setting [1]; 126 µM under setting [2]; 219 µM under setting [3].

`COC(=O)CCC(=O)NCc1ccc(F)c(C(F)(F)F)c1` [C276]: the IC50 was found to be 1440 µM under setting [1], 428 µM under setting [2] and 476 µM under setting [3].

Turning to `O=C(NO)C(=O)NCc1ccc(Cl)c(C(F)(F)F)c1` [C280], the IC50 is, setting by setting: under setting [1], 207 µM and 203 µM; under setting [2], 166 µM and 159 µM; under setting [3], 168 µM.

As to `Cc1cc(CNC(=O)C(=O)NN)ccc1F` [C262], the IC50 reads like this: under setting [1], 170 µM and 187 µM; under setting [2], 63 µM and 84 µM; under setting [3], 86 µM.

`CCOC(=O)C(=O)NCc1ccc(Br)cc1` [C259]: the IC50 by setting is: under setting [1], 2890 µM and 3140 µM; under setting [2], 625 µM and 760 µM; under setting [3], 526 µM.

Turning to `COc1ccc(CCNC(=O)C(=O)NN)cc1OC` [C246], under setting [1], the IC50 stood at 2560 µM.

Regarding `O=C(CCc1ccc(O)c(O)c1)NCc1ccc(Cl)cc1` [C359], the IC50 reads like this: under setting [1], 3370 µM; under setting [2], 2080 µM; under setting [3], 974 µM.

Turning to `O=C(CCc1ccc(O)c(O)c1)NCc1cccc(OC(F)(F)F)c1` [C357], the IC50 reads like this: under setting [1], 1370 µM; under setting [2], 1230 µM; under setting [3], 567 µM.

Regarding `Cc1oncc1C(=O)NCc1ccc(Cl)c(C(F)(F)F)c1` [C279], the IC50 is 539 µM and 593 µM under setting [1]; 545 µM and 504 µM under setting [2]; 680 µM under setting [3].

In the case of `NNC(=O)CCC(=O)NCc1cccc(C(F)(F)F)c1` [C289], the IC50 amounted to 2730 µM under setting [1], 1100 µM under setting [2] and 733 µM under setting [3].

Turning to `O=C(/C=C/c1ccc(O)c(O)c1)NCc1ccc(Cl)c(C(F)(F)F)c1` [C346], the IC50 under setting [1] came out at 353 µM.

Turning to `NNC(=O)C(=O)NCc1cccc(C(F)(F)F)c1` [C297], the IC50 runs as follows: under setting [1], 136 µM; under setting [2], 111 µM; under setting [3], 87 µM.

On to `NNC(=O)CCC(=O)NCc1ccc(Cl)c(C(F)(F)F)c1` [C278], for which the IC50 under setting [1] is 640 µM and 642 µM; the IC50 under setting [2] is 118 µM and 130 µM; the IC50 under setting [3] was 142 µM.

On to `CC(C)=NNC(=O)C(=O)NCc1cc(F)cc(F)c1` [C313], for which the IC50 is, setting by setting: under setting [1], 1200 µM; under setting [2], 532 µM; under setting [3], 490 µM.

In the case of `O=C(NCc1ccc(Br)cc1)c1ccc(O)c(O)c1` [C360], the IC50 is 164 µM under setting [1], 1670 µM under setting [2] and 771 µM under setting [3].

With `Cc1cc(CNC(=O)CCc2ccc(O)c(O)c2)ccc1F` [C358], the IC50 under setting [1] came out at 1500 µM, the IC50 under setting [2] was 1230 µM and the IC50 under setting [3] was determined as 619 µM.

As for `COc1ccc(-c2nc(-c3ccc4c(c3)CC(=O)N4)cs2)cc1OC` [C227, 5-(2-(3,4-dimethoxyphenyl)thiazol-4-yl)indolin-2-one], the IC50 under setting [1] turned out to be 205 µM.

For the compound `O=C(NCc1ccc(C(F)(F)F)cc1)c1ccc(O)c(O)c1` [C363], the IC50 is, setting by setting: under setting [1], 199 µM; under setting [2], 751 µM; under setting [3], 309 µM.

Consider `Cc1cc(Cl)ccc1CNC(=O)c1n[nH]c(=O)o1` [C299], for which the IC50 runs as follows: under setting [1], 238 µM; under setting [2], 739 µM; under setting [3], 628 µM.

Consider `NNC(=O)C(=O)NCc1cccc(OC(F)(F)F)c1` [C268], for which the IC50 reads like this: under setting [1], 135 µM and 134 µM; under setting [2], 65 µM; under setting [3], 77 µM.

For the compound `O=C1Cc2cc(S(=O)(=O)NCCc3ccccc3)ccc2N1` [C229, 2-oxo-N-phenethylindoline-5-sulfonamide], the IC50 under setting [1] is 1290 µM.

With `O=C(NCc1cccc(C(F)(F)F)c1)c1ccc(O)c(O)c1` [C364], the IC50 stood at 475 µM under setting [1], 898 µM under setting [2] and 533 µM under setting [3].

As to `COC(=O)CCC(=O)NCc1ccc(Cl)c(C(F)(F)F)c1` [C277], the IC50 reads like this: under setting [1], 751 µM and 719 µM; under setting [2], 165 µM and 158 µM; under setting [3], 148 µM and 142 µM.

As to `Cc1ccc(CNC(=O)C(=O)NN)cc1` [C362], the IC50 by setting is: under setting [1], 533 µM; under setting [2], 353 µM; under setting [3], 229 µM.

In the case of `CONC(=O)C(=O)NCc1ccc(Cl)c(C(F)(F)F)c1` [C320, N-(4-chloro-3-(trifluoromethyl)benzyl)-N′-methoxyoxalamide], the IC50 was found to be 329 µM under setting [1], 513 µM under setting [2] and 693 µM under setting [3].

For `NNC(=O)C(=O)NCc1ccccc1F` [C263], the IC50 runs as follows: under setting [1], 2840 µM; under setting [2], 1680 µM; under setting [3], 1360 µM.

Regarding `NNC(=O)C(=O)NCc1ccc(OC(F)(F)F)cc1` [C255], the IC50 reads like this: under setting [1], 2060 µM and 1780 µM; under setting [2], 221 µM and 292 µM; under setting [3], 279 µM.

For `CCCCCCNC(=O)C(=O)NN` [C240], the IC50 runs as follows: under setting [1], 3770 µM and 3910 µM; under setting [2], 2220 µM and 1970 µM; under setting [3], 1210 µM.

As for `O=C(CCc1ccc(O)c(O)c1)NCc1cc(F)c(F)c(F)c1` [C356], the IC50 reads like this: under setting [1], 1100 µM; under setting [2], 1240 µM; under setting [3], 544 µM.

`O=C(NCc1ccc(Cl)c(C(F)(F)F)c1)c1ccc(O)c(O)c1` [C348]: the IC50 under setting [1] turned out to be 99 µM, the IC50 under setting [2] stood at 454 µM and the IC50 under setting [3] is 240 µM.

With `Cc1ccc(CNC(=O)c2n[nH]c(=O)o2)cc1F` [C306], the IC50 was determined as 1160 µM under setting [1], 403 µM under setting [2] and 405 µM under setting [3].

`NNC(=O)C(=O)NCc1ccc(Br)cc1` [C260]: the IC50 by setting is: under setting [1], 147 µM and 187 µM; under setting [3], 525 µM.

As to `Cc1cc(Cl)ccc1CNC(=O)C(=O)NO` [C300], under setting [1], the IC50 stood at 5490 µM.

`COC(=O)CCC(=O)NCc1cccc(C(F)(F)F)c1` [C288]: the IC50 runs as follows: under setting [1], 2910 µM; under setting [2], 1060 µM; under setting [3], 752 µM.

Regarding `NNC(=O)C(=O)NCc1cccc(Cl)c1Cl` [C301], the IC50 under setting [1] worked out at 173 µM, the IC50 under setting [2] was found to be 128 µM and the IC50 under setting [3] stood at 106 µM.

For the compound `O=C1Cc2cc(-c3csc(-c4ccc(O)c(O)c4)n3)ccc2N1` [C228], under setting [1], the IC50 came out at 14.8 µM.

In the case of `O=C(Cc1ccc(O)c(O)c1)NCc1ccc(Cl)c(C(F)(F)F)c1` [C347], the IC50 turned out to be 888 µM under setting [1], 309 µM under setting [2] and 293 µM under setting [3].

On to `CCCCCNC(=O)C(=O)NN` [C241], for which the IC50 under setting [1] turned out to be 1930 µM.

In the case of `Cc1ccc(F)cc1CNC(=O)C(=O)NN` [C341], the IC50 under setting [1] was 900 µM, the IC50 under setting [2] came out at 1460 µM and the IC50 under setting [3] came out at 1870 µM.

`O=C(NCc1ccc(Cl)cc1)c1ccc(O)c(O)c1` [C361]: the IC50 worked out at 232 µM under setting [1], 2000 µM under setting [2] and 851 µM under setting [3].

As to `Cc1cc(Cl)ccc1CNC(=O)C(=O)NN` [C282], the IC50 is, setting by setting: under setting [1], 225 µM and 219 µM; under setting [2], 163 µM and 154 µM; under setting [3], 121 µM.

Regarding `NNC(=O)CCC(=O)NCc1ccc(F)c(C(F)(F)F)c1` [C287], the IC50 is 1190 µM under setting [1], 363 µM under setting [2] and 304 µM under setting [3].

Regarding `CON(C)C(=O)C(=O)NCc1ccc(Cl)c(C(F)(F)F)c1` [C328], the IC50 runs as follows: under setting [1], 713 µM; under setting [2], 345 µM; under setting [3], 318 µM.

In the case of `COc1cc(CNC(=O)C(=O)NN)cc(OC)c1` [C322], the IC50 under setting [1] amounted to 4320 µM.

`NNC(=O)C(=O)NCc1cc(F)cc(F)c1` [C340]: the IC50 runs as follows: under setting [1], 337 µM; under setting [2], 249 µM; under setting [3], 272 µM.

For the compound `COc1cccc(CNC(=O)C(=O)NN)c1` [C295], the IC50 reads like this: under setting [1], 1340 µM; under setting [2], 776 µM; under setting [3], 736 µM.

As for `O=C1Cc2cc(C(=O)CNCCNCC(=O)c3ccc4c(c3)CC(=O)N4)ccc2N1` [C225, 5,5′-(2,2′-(ethane-1,2-diylbis(azanediyl))bis(acetyl))bis(indolin-2-one)], under setting [1], the IC50 stood at 163 µM.

Regarding `NNC(=O)C(=O)NCc1ccc(F)c(C(F)(F)F)c1` [C261], the IC50 by setting is: under setting [1], 102 µM and 103 µM; under setting [2], 68 µM and 86 µM; under setting [3], 69 µM.

For `NNC(=O)C(=O)NCc1ccc(Cl)cc1F` [C307], the IC50 by setting is: under setting [1], 465 µM; under setting [2], 99 µM; under setting [3], 101 µM.

As for `O=C(CCc1ccc(O)c(O)c1)NCc1cccc(C(F)(F)F)c1` [C344], the IC50 was determined as 1000 µM under setting [1], 830 µM under setting [2] and 866 µM under setting [3].
